Assays:
[1] = Local administration of radiolabelled TTA, presence in coronary arteries; assay type: in vivo; conditions: administered locally in two extra pigs; after 4 and 6 weeks
[2] = test system: cultured Chinese hamster ovary cells; assay: Chromosomal aberrations in cultured Chinese hamster ovary cells; assay type: cell-based; conditions: CHO cells, doses tested 12–140 mg/ml
[3] = Plasma lipid lowering on feeding moderate doses to animals; assay type: in vivo, rats, mice, rabbits and dogs; conditions: for potency in lowering plasma triacylglycerols and cholesterol: compared with polyunsaturated fatty acids like EPA
Text: (§1) Feeding moderate doses of TTA to animals like rats, mice, rabbits and dogs decreased both plasma cholesterol and triacylglycerol levels within days of treatment.

[4] = test system: strains of Salmonella typhimurium; assay: Tests for mutagenic activity in bacterial strains; assay type: cell-based; conditions: S. typhimurium; 3–1000 mg/plate (TTA), 2–5000 mg/plate (TSA)
Text: (§2) Tests for mutagenic activity have been performed by Covance Laboratories Limited, England. […] Furthermore, TTA was not mutagenic when tested in mouse lymphoma cells […] L5178Y.

[5] = test system: strains of Escherichia coli; assay: Tests for mutagenic activity in bacterial strains; assay type: cell-based; conditions: E. coli; 3–1000 mg/plate (TTA), 2–5000 mg/plate (TSA)
Text: as §2

restenosis = assay: IVUS (intravascular ultrasound) after balloon injury; assay type: in vivo, minipigs
Protocol: (§3) A follow-up angiography was performed in the same frontal view after 10 weeks, following the same procedure as indicated above, by using ioxaglate (Hexabrix®) as contrast medium. The sheath was now inserted in the left carotid artery. Intravascular ultrasound was performed to quantitate wall thickness and lumen diameter. After angiography a laparotomy was performed and the abdominal aorta was cannulated with an 18G infusion-needle. The animals were euthanised by giving overdose pentobarbital intraarterially via the sheath in the left carotid artery.
(§4) Various local drug delivery systems have been developed to enable local application of pharmacological agents in conjunction with PTCA. In this study 20 minipigs were randomised to placebo or active treatment with the fatty acid analogue tetradecylthioaceticacid acid (TTA) via a Transport® multiphorous angioplasty balloon catheter. This catheter has a sleeve embracing the balloon and the drug is delivered through a separate lumen connected to the sleeve which has multiple holes.
(§5) Coronary balloon angioplasty injury using an oversized balloon was performed to the LAD or LCx followed by 3 bolus deliveries of 0.5 ml (0.33 mg/ml TTA) of active drug/placebo. Quantitative angiography as indicated in the preceding sections was performed before and after injury, and after 4 weeks follow-up. Subsequently the pigs were sacrificed, perfusion-fixed with glutaraldehyde and the vessels prepared for histology with computer assisted planimetry.
The ICUS (intracoronary ultrasound) results were consistent with the angiography data.

[6] = Total plasma homocysteine in rats given TTA; assay type: in vivo; conditions: Male Wistar rats, 300 mg TTA per kg body weight per day in 10 days
Protocol: Increased levels of homocysteine, i.e. hyperhomocysteinemia has been proposed to be associated with arterial diseases, and we thus measured the levels of homocysteine in plasma samples from Male Wistar rats given 300 mg TTA per kg body weight per day in 10 days.
Total plasma homocysteine was measured by a fully automated fluorescence assay. 30 μl plasma was reduced by 30 μl NaBH4/DMSO solution (6 mol/L). After 1.5 min 20 μl of the fluorescence reagent monobromobimane (25 mmol/L) in acetonitrile was added and allowed to react for 3 min. 20 μl of the sample was then immediately analysed with HPLC by injection on a strong cation-exchange column, and then by column switching into a cyclohexyl silica column. The SCX column was eluted isocratically and the CH column was eluted with a linear methanol gradient (17–35% in 5 min) in 20 mmol/L formate buffer. The homocysteine was eluted at a retention time of 4.5 min.

[7] = test system: mouse lymphoma cells, L5178Y; assay: Mutagenicity in mouse lymphoma cells; assay type: cell-based; conditions: 2.5–50 mg/ml
Text: as §2

[8] = test system: restenosis (iliac artery); assay: Prevention of restenosis in rabbits given TTA orally, quantitative angiography after iliac balloon angioplasty; assay type: in vivo, Chinchilla (Chbb:CH) rabbits; conditions: for diameter artery (Ds) / dilatation/stenosis (Dr − Ds)/Dr / reference diameter (Dr): TTA 800 mg daily oral
Protocol: Fourteen Chinchilla (Chbb:CH) rabbits of either sex were randomised either to receive supplement with TTA fatty acids 800 mg daily (mean weight 3.6±0.09 kg) or to placebo (mean weight 3.5±0.47 kg).
The animals were pre-treated with TTA given as oral supplements, mixed with daily food pellets, for three weeks to ensure accumulation of the fatty acid analogues in the tissues.
After premedication with 0.5 ml fentanyl (0.315 mg/ml) and fluanisone (10 mg/ml) (Hypnorm®) intramuscularly, the rabbits were anaesthetised by administering diazepam 4 mg/kg intraperitoneally and maintained by additional 0.3–0.4 ml of a 1:1 mixture of Hypnorm® and diazepam, usually necessary once during the procedure.
After local infiltration of the skin by lignocaine (Xylocaine®) and surgical cut-down, the right carotid artery was cannulated by a 6F sheath. A bolus of 100 U/kg of heparin was administered intraarterially. Before the angioplasty, an angiography was performed in the frontal view by injecting 3 ml of ioxaglate (Hexabrix®) as contrast medium via a Berman® catheter.
An angioplasty balloon catheter (Express®) of 2.5 mm was positioned in the proximal part of each iliac artery and balloon angioplasty was performed with 2 balloon inflations at the same site in each artery, at 8 and 12 atmosphere for 30 seconds each to overstretch the artery. The balloon marker, on the middle of the 20 mm long balloon, was placed over the ilio-sacral joint, thus ensuring that the balloon was positioned at identical sites. Inflation was performed using a pressure manometer (Encore® 26 inflation device, Scimed, Boston Scientific corporation).
A further angiography was performed in the same frontal view as the first angiography to assure artery patency. The carotid artery was ligated and the skin was closed with ligatures. Buprenorfin 0.3 mg (Temgesic®) and penicillin were given subcutaneous once daily for the first days.
as §3
The frames with maximal opacification from baseline angiographies (before and after dilatation), as well as from the follow-up angiography were stored for subsequent quantitative analysis. Arterial diameter before and after dilatation as well as the balloon to artery ratio were measured. The minimal luminal diameter, reference diameter and stenosis were determined. All measurements were performed with a digital electronic calliper (Sandhill, model EC-1)(12). A balloon angioplasty catheter (Express® 2.5 mm), placed on the abdomen and dilated at 8 atmospheres (rated balloon diameter 2.5 mm) served for calibration.
Acute gain: minimal luminal diameter (MLD) post dilatation minus diameter artery before dilatation. Late loss: MLD post dilatation minus MLD at control angiography. Loss index: late loss divided by acute gain.

[9] = test system: restenosis (coronary artery, LAD or LCx); assay: Prevention of restenosis in mini pigs, local administration of TTA, quantitative angiography and histology; assay type: in vivo; conditions: minipigs; for Luminal diameter: local TTA 3 x 0.5 ml (0.33 mg/ml)
Text: as §4, §5

[10] = test system: human smooth muscle cells (SMC); assay: Proliferation of cultured smooth muscle cells (cell counting); assay type: cell-based; conditions: 100 μM with BSA, cells counted after 3 and 6 days, FIG. 3
Protocol: SMC are human smooth muscle cells available from American Type Culture Collection (Type 1999-CRL). The SMC cells were cultured in bottles (75 cm^2) in Ham's F12K medium. 24 hours after inoculation, the fatty acids and BSA in a molar ratio of 1:2.5 were added to the medium, i.e. to a final concentration of palmitic acid and TTA of 100 μM. After 3 and 6 days the cells were trypsinated, and the number of cells determined by using a light microscopy with counting chambers (Leitz Wetzler).

[11] = Hepatic and plasma fatty acid composition after TTA administration to rats; assay type: in vivo; conditions: 12 weeks
Text: Thus the compound of the present invention modifies the composition of the lipids in various tissues.

[12] = test system: mitochondrial β-oxidation system; assay: Mitochondrial β-oxidation
Text: The studies have shown that TTA has properties very similar to natural fatty acids, the main difference being that TTA is not oxidised by the mitochondrial β-oxidation system.
as §1

[13] = 28 days toxicity study in dogs (GLP); assay type: in vivo
Text: A 28 days toxicity study in dogs according to GLP guide-lines has been performed by Corning Hazleton (Europe), England. […] Some lipid related parameters were lowered in the animals given high dosages. This is consistent with the pharmacological activity of TTA.

[14] = control angiography (follow-up)
[15] = moderate doses, within days of treatment

Which “presence of active drug in the coronary arteries” value [1] does the source give for `CCCCCCCCCCCCCCSC[14C](=O)O` [1-^14C-TTA] here?
The value was “confirmed the presence of active drug”.

For `CCCCCCCCCCCCCC[Se]CC(=O)O` [TSA, tetradecylselenioacetic acid], which chromosomal aberrations [2] is on record?
The chromosomal aberrations was “no aberrations were induced”.

What about the “potency in lowering plasma triacylglycerols and cholesterol” value [3] of the same compound?
Its value is “far more potent”.

What about the induction of mutations [4] of the same compound?
Its induction of mutations is “did not induce mutations”.

What about the induction of mutations [5] of the same compound?
Its induction of mutations is “did not induce mutations”.

Which Area site (restenosis) does the source give for Tetradecylthioacetic acid [TTA] here?
Its Area site is 0.61 ± 0.152 mm^2.

What about the Max. diameter site (restenosis) of the same compound?
Its Max. diameter site is 2.87 ± 0.408 mm.

What about the Minimal diameter site (restenosis) of the same compound?
Its Minimal diameter site is 2.76 ± 0.381 mm.

And the “Plasma concentration of homocysteine” value [6]?
The value was 5.4 ± 1.0 µmol/L.

What about the mutagenicity [7] of the same compound?
Its mutagenicity is “not mutagenic”.

And the chromosomal aberrations [2]?
The chromosomal aberrations was “no aberrations were induced”.

And the late loss ([8]; MLD post dilatation minus MLD at control angiography)?
The late loss was 0.76 ± 0.38.

And the acute gain ([8]; MLD post dilatation minus diameter artery before dilatation)?
The acute gain was 0.48 ± 0.22 mm.

What about the “diameter artery (Ds)” value ([8]; after dilatation) of the same compound?
Its value is 2.36 ± 0.19 mm.

What about the “dilatation/stenosis (Dr − Ds)/Dr” value ([8]; after dilatation) of the same compound?
Its value is −31.2.

What about the “reference diameter (Dr)” value ([8]; after dilatation) of the same compound?
Its value is 1.80 ± 0.17 mm.

And the “diameter artery (Ds)” value ([8]; before dilatation)?
The value was 1.91 ± 0.18 mm.

And the “reference diameter (Dr)” value ([8]; before dilatation)?
The value was 1.91 ± 0.18 mm.

And the “diameter artery (Ds)” value [8, 14]?
Its value is 1.60 ± 0.26 mm.

What about the “dilatation/stenosis (Dr − Ds)/Dr” value [8, 14] of the same compound?
The value was 23.5.

What about the “reference diameter (Dr)” value [8, 14] of the same compound?
The value was 2.07 ± 0.15 mm.

And the “decrease in artery diameter at follow-up” value ([8]; follow-up after angioplasty, oral TTA)?
The value was “inhibited the decrease in artery diameter”.

What about the loss index ([8]; late loss divided by acute gain) of the same compound?
The loss index was 1.53 ± 0.46.

What about the Luminal diameter ([9]; after PTCA) of the same compound?
The Luminal diameter was 3.2 mm.

What about the Luminal diameter ([9]; at follow-up) of the same compound?
Its Luminal diameter is 2.2 mm.

And the Luminal diameter ([9]; before PTCA)?
Its Luminal diameter is 2.6 mm.

What about the maximal intimal thickness ([9]; treated group with respect to the placebo group) of the same compound?
Its maximal intimal thickness is “unchanged”.

And the “potency in lowering plasma triacylglycerols and cholesterol” value [3]?
Its value is “far more potent”.

And the plasma cholesterol levels [3, 15]?
Its plasma cholesterol levels is “decreased”.

And the plasma triacylglycerol levels [3, 15]?
Its plasma triacylglycerol levels is “decreased”.

And the “growth of smooth muscle cells” value [10]?
Its value is “inhibiting effect”.

What about the “hepatic and plasma content of monounsaturated fatty acids (mainly oleic acid)” value [11] of the same compound?
The value was “nearly doubled”.

What about the “polyunsaturated fatty acids (mainly linoleic acid and DHA)” value [11] of the same compound?
The value was “decreased”.

And the induction of mutations [4]?
The induction of mutations was “did not induce mutations”.

What about the induction of mutations [5] of the same compound?
The induction of mutations was “did not induce mutations”.

And the “oxidation by the mitochondrial β-oxidation system” value [12]?
The value was “not oxidised”.

What about the body weight ([13]; 500 mg/kg/day) of the same compound?
The body weight was “body weight loss”.

What about the lipid related parameters ([13]; animals given high dosages) of the same compound?
Its lipid related parameters is “lowered”.

What about the evidence of toxicity ([13]; dose levels of 50 or 500 mg/day/kg) of the same compound?
The evidence of toxicity was “no evidence of toxicity”.

And the “tolerability of oral administration” value ([13]; oral, dose levels up to 500 mg/kg/day)?
The value was “generally well tolerated”.

From patent publication US7026356B2, “Fatty acid analogues for the treatment of diseases caused by the pathological proliferation of smooth muscle cells” (priority 1998, dated 2006)
